For one assay, the target named is human ADAMTS6 (Homo sapiens (Human), UniProt Q9UKP5). Description: hADAMTS-6 fluorescent based protease assay (520 MMP FRET substrate XII). The class given is biochemical. To be noted: 37° C. for 2 h; read-out: hADAMTS-6 potency IC50. The procedure, abridged: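 ADAMTS6 (0.73 nM final) in 25 mM Tris pH 8.0, 0.05% CHAPS, 2.5 mM CaCl2 with compound dilution series (top 20 μM, 1/5 steps). Reaction started with 520 MMP FRET Substrate XII, incubated 2 h at 37 °C. Substrate cleavage read by fluorescence ex485/em530; IC50 determined.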
Sequence of human ADAMTS6 (Q9UKP5 other isoform, or with tags, fused parts or gaps): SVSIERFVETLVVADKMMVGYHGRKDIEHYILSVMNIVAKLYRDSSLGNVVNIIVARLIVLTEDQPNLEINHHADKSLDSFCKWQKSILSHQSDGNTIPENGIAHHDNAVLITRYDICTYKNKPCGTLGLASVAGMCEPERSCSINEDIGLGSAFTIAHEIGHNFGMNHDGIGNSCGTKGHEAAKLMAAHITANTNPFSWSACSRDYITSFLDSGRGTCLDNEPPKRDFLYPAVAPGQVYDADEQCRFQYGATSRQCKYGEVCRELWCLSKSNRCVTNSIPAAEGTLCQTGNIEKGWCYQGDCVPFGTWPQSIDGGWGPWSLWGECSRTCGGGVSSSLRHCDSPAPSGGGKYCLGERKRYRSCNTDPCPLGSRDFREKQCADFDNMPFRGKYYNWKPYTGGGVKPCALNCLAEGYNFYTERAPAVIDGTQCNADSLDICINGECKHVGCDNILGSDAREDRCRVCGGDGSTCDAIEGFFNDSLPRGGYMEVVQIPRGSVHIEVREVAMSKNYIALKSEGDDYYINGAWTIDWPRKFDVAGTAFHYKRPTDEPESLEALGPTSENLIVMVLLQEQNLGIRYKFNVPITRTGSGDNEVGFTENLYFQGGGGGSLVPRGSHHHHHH

The next assay addresses human ADAMTS-5 (Homo sapiens (Human), UniProt Q9UNA0). Description: hADAMTS-5 TBIS-1 cleavage assay, Protocol 3. The class given is biochemical. To be noted: 90 min at 37° C., read-out: hADAMTS-5 potency IC50.
Another assay has as its target rnADAMTS-5 (1-564-6H) (Rattus norvegicus (Rat), UniProt Q6TY19). Description: Rat ADAMTS-5 TBIS-1 cleavage assay. The class given is biochemical. The conditions noted are these: 120 min at 37° C.; read-out: Rat ADAMTS-5 potency IC50.
The target in another assay is human ADAMTS4 (Homo sapiens (Human), UniProt O75173). Description: hADAMTS-4 TBIS-1 cleavage assay, Protocol 2. The format is biochemical.
Sequence of human ADAMTS4 (O75173 213-837): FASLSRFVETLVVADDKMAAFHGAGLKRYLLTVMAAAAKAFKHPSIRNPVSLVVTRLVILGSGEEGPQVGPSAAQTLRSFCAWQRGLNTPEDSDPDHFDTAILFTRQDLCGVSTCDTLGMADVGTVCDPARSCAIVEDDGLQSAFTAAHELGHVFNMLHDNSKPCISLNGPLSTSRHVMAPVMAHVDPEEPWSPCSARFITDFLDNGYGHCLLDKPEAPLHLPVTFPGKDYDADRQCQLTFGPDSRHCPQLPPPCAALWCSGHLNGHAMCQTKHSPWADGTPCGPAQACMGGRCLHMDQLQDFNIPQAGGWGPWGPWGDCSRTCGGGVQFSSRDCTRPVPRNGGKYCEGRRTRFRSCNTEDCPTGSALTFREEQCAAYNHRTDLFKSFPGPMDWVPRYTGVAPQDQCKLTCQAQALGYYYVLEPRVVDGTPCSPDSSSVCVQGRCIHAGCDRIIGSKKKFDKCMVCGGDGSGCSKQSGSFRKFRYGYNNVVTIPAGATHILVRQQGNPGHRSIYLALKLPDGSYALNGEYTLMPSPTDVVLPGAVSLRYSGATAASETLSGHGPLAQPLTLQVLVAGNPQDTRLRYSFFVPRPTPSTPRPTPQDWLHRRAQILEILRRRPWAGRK
The target of the next assay is human TACE (Homo sapiens (Human), UniProt P78536). Description: biochemical.
Sequence of human TACE (P78536 215-671): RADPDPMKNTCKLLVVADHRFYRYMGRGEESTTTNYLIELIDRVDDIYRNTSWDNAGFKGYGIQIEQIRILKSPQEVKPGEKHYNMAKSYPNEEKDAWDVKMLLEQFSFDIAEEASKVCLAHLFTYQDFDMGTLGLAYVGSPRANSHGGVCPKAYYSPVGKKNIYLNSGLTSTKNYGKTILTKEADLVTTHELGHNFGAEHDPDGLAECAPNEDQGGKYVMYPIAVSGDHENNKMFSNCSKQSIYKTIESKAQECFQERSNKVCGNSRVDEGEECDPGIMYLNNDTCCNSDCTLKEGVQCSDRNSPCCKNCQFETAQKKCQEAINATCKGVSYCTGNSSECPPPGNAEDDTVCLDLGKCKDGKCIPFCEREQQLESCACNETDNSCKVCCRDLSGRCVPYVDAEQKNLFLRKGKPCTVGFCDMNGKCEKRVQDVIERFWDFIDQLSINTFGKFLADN
The target of a further assay is human MMP14 (Homo sapiens (Human), UniProt P50281). Description: hMMP14 assay (390 MMP FRET Substrate I). The format is biochemical. To be noted: human MMP14 (Biomol), read-out: hMMP-14 potency IC50.
The target of another assay is human MMP13 (Homo sapiens (Human), UniProt P45452). Put plainly: hMMP13 assay, Protocol 2 (390 MMP FRET Substrate I, Enzo enzyme). The class given is biochemical. The conditions noted are these: Protocol 2, human MMP13 (Enzo Life Sciences), read-out: hMMP-13 potency IC50. The method, then:
Human MMP13 is preactivated by incubated the enzyme in the same buffer complemented with 1 mM freshly prepared p-Aminophenylmercuric acetate (AMPA) for 1 h at 37° C.

Where [1] appears, read: Protocol 2, 180 min at 37° C., read-out: ADAMTS4 potency IC50.

Structures are written as SMILES. Read-outs that look alike come from different tables or passages of the source.

Sequence of human ADAMTS-5 (Q9UNA0 262-930): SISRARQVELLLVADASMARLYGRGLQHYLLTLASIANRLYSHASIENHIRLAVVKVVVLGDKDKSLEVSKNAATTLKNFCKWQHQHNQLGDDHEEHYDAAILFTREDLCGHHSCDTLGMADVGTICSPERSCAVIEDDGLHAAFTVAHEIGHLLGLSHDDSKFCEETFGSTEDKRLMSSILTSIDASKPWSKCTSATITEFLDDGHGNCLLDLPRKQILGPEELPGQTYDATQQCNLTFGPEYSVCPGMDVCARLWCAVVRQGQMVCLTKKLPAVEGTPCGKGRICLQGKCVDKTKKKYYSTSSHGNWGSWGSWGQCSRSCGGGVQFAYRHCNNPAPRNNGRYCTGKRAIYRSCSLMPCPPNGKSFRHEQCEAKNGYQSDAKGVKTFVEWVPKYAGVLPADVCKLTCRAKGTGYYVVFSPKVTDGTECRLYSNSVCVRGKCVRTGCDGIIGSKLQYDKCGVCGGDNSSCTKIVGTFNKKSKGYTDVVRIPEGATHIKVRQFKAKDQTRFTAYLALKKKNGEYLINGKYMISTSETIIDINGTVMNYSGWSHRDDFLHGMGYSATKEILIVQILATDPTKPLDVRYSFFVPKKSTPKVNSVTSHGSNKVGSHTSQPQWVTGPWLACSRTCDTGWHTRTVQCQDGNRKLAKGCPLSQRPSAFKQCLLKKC
Sequence of rnADAMTS-5 (1-564-6H) (Q6TY19 entry or part of it): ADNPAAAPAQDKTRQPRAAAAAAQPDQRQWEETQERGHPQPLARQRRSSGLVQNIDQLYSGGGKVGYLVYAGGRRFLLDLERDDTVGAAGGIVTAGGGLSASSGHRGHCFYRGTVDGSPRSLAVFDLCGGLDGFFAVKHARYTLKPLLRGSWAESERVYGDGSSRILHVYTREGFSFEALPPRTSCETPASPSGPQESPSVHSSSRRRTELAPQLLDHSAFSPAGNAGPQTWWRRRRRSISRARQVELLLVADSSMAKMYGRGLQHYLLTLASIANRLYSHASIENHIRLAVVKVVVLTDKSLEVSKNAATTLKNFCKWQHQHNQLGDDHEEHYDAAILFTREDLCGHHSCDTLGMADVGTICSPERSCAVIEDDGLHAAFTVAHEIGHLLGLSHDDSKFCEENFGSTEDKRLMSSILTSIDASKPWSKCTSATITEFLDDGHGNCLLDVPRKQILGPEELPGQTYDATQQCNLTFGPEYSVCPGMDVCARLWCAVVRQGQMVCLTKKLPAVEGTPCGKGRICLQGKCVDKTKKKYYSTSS
Description for human ADAMTS-5: The reaction is initiated by adding to the assay plate TBIS-1 (10 μL, 4.5 μM, Anaspec) in the same buffer.
Finally, the fluorescence is read on the Envision (Perkin Elmer) after an incubation of 90 min at 37° C. (Excitation 485 nm, emission 530).
Description for human MMP14: The basis for the assay is the cleavage of the substrate 390 MMP FRET Substrate I (Anaspec Cat #AS-27076) by human MMP14 (Biomol, Cat #SE-259).
The reaction is initiated by adding to the assay plate 390 MMP FRET Substrate I (10 μL, 2.5 μM) in the same buffer.
Finally, the fluorescence is read on the Envision (Perkin Elmer) after an incubation of 60 min at room temperature (Excitation 485 nm, Emission 530).
Description for human TACE: Finally, the fluorescence is read on the Envision (Perkin Elmer) after an incubation of 75 min at room temperature (Excitation 485 nm, Emission 530).

Regarding `COc1cc(F)cc(N2CCN(C(=O)[C@H](C)C[C@@]3(C)NC(=O)NC3=O)CC2)c1` (stereo in doubt) [Cpd 131, 5-[3-[4-(3-fluoro-5-methoxy-phenyl)piperazin-1-yl]-2-methyl-3-oxo-propyl]-5-methyl-imidazolidine-2,4-dione], the IC50 at human ADAMTS6, at human ADAMTS-5 and on rnADAMTS-5 (1-564-6H) was > 100 nM throughout.
On to `CCc1cc(N2CCN(C(=O)CC[C@@]3(C)NC(=O)NC3=O)C[C@@H]2C)ccc1Cl` [Cpd 75, (5R)-5-[3-[(3 S)-4-(4-chloro-3-ethyl-phenyl)-3-methyl-piperazin-1-yl]-3-oxo-propyl]-5-methyl-imidazolidine-2,4-dione], for which the IC50 is > 100 nM at human ADAMTS4 (setting [1]); > 100 nM against human TACE; 0.001 to 25 nM at human ADAMTS6; 50 to 100 nM on human ADAMTS-5; > 100 nM at human MMP14; > 100 nM at human MMP13.
As to `COc1cc(N2CCN(C(=O)[C@@H](C)C[C@@]3(C)NC(=O)NC3=O)CC2)cc(F)c1Cl` [Cpd 122, (5R)-5-[(2S)-3-[4-(4-chloro-3-fluoro-5-methoxy-phenyl)piperazin-1-yl]-2-methyl-3-oxo-propyl]-5-methyl-imidazolidine-2,4-dione], the concentration for half-maximal inhibition (IC50) is 50 to 100 nM at human ADAMTS4; > 100 nM at human TACE; 0.001 to 25 nM at human ADAMTS6; 0.001 to 25 nM on human ADAMTS-5; > 100 nM at human MMP14; > 100 nM at human MMP13.
Regarding `COC[C@]1(C[C@H](C)C(=O)N2CCN(c3cc(F)c(Cl)c(OC)c3)[C@@H](C)C2)NC(=O)NC1=O` (mixture of isomers) [Cpd 121, 5-[3-[(3S)-4-(4-chloro-3-fluoro-5-methoxy-phenyl)-3-methyl-piperazin-1-yl]-2-methyl-3-oxo-propyl]-5-(methoxymethyl)imidazolidine-2,4-dione], the IC50 against human ADAMTS4 was 50 to 100 nM; on human TACE, > 100 nM; on human ADAMTS6 it was 0.001 to 25 nM; at human ADAMTS-5, 25 to 50 nM; at human MMP14 it was > 100 nM; at human MMP13, > 100 nM.
On to `COc1cc(N2CCN(C(=O)CC[C@@]3(C)NC(=O)NC3=O)C[C@@H]2C)cc(N(C)C)c1Cl` [Cpd 99, (5R)-5-[3-[(3S)-4-[4-chloro-3-(dimethylamino)-5-methoxy-phenyl]-3-methyl-piperazin-1-yl]-3-oxo-propyl]-5-methyl-imidazolidine-2,4-dione], for which the IC50 at human ADAMTS4 (setting [1]) was > 100 nM; on human TACE, > 100 nM; on human ADAMTS6, 0.001 to 25 nM; at human ADAMTS-5, > 100 nM; at human MMP14 it was > 100 nM; at human MMP13, > 100 nM.
For `CCc1cc(N2CCN(C(=O)CC[C@@]3(C)NC(=O)NC3=O)CC2)cc(OC)c1Cl` [Cpd 115, (5R)-5-[3-[4-(4-chloro-3-ethyl-5-methoxy-phenyl)piperazin-1-yl]-3-oxo-propyl]-5-methyl-imidazolidine-2,4-dione], the IC50 is > 100 nM on human ADAMTS4 (setting [1]); > 100 nM at human TACE; 0.001 to 25 nM at human ADAMTS6; > 100 nM at human ADAMTS-5; > 100 nM at human MMP14; > 100 nM on human MMP13.
Turning to `CC[C@]1(C[C@H](C)C(=O)N2CCN(c3cc(F)c(F)c(OC)c3)CC2)NC(=O)NC1=O` [Cpd 57, (5R)-5-[(2S)-3-[4-(3,4-difluoro-5-methoxy-phenyl)piperazin-1-yl]-2-methyl-3-oxo-propyl]-5-ethyl-imidazolidine-2,4-dione], the IC50 was 50 to 100 nM against human ADAMTS4; > 100 nM against human TACE; 0.001 to 25 nM on human ADAMTS6; 25 to 50 nM on human ADAMTS-5; > 100 nM at human MMP14; > 100 nM at human MMP13.
As for `CCOc1cc(N2CCN(C(=O)CC[C@@]3(C)NC(=O)NC3=O)C[C@@H]2C)cc(OC)c1Cl` [Cpd 80, (5R)-5-[3-[(3 S)-4-(4-chloro-3-ethoxy-5-methoxy-phenyl)-3-methyl-piperazin-1-yl]-3-oxo-propyl]-5-methyl-imidazolidine-2,4-dione], the IC50 at human ADAMTS4 (setting [1]) is > 100 nM; on human TACE, > 100 nM; at human ADAMTS6, 0.001 to 25 nM; at human ADAMTS-5, > 100 nM; on human MMP14 it was > 100 nM; on human MMP13, > 100 nM.
For the compound `COc1cncc(N2CCN(C(=O)[C@@H](C)C[C@@]3(C4CC4)NC(=O)NC3=O)C[C@@H]2C)c1` (stereo in doubt) [Cpd 64, 5-cyclopropyl-5-[3-[(3 S)-4-(5-methoxy-3-pyridyl)-3-methyl-piperazin-1-yl]-2-methyl-3-oxo-propyl]imidazolidine-2,4-dione], the IC50 at human ADAMTS4 (setting [1]) was > 100 nM; on human TACE, > 100 nM; at human ADAMTS6, 50 to 100 nM; on human ADAMTS-5, 50 to 100 nM; on human MMP14, > 100 nM; at human MMP13, > 100 nM.
Consider `COc1cc(N2CCN(C(=O)[C@@H](C)C[C@H]3NC(=O)NC3=O)CC2)cc(F)c1F` (stereo in doubt) [Cpd 51, 5-[3-[4-(3,4-difluoro-5-methoxy-phenyl)piperazin-1-yl]-2-methyl-3-oxo-propyl]imidazolidine-2,4-dione], for which the IC50 on human ADAMTS4 (setting [1]) was > 100 nM; on human TACE, > 100 nM; on human ADAMTS6 it was 0.001 to 25 nM; on human ADAMTS-5, > 100 nM; on human MMP14 it was > 100 nM; on human MMP13, > 100 nM.
As for `COc1cc(N2CCN(C(=O)CC[C@H]3NC(=O)NC3=O)CC2)cc(Cl)c1F` [Cpd 147, (5R)-5-[3-[4-(3-chloro-4-fluoro-5-methoxy-phenyl)piperazin-1-yl]-3-oxo-propyl]imidazolidine-2,4-dione], the IC50 is > 100 nM at human ADAMTS4 (setting [1]); > 100 nM at human TACE; 0.001 to 25 nM at human ADAMTS6; > 100 nM on human ADAMTS-5; > 100 nM on human MMP14; > 100 nM on human MMP13.
Regarding `COC[C@]1(C[C@H](C)C(=O)N2CCN(c3cc(F)c(Cl)c(OC)c3)CC2)NC(=O)NC1=O` [Cpd 123, (5 S)-5-[(2S)-3-[4-(4-chloro-3-fluoro-5-methoxy-phenyl)piperazin-1-yl]-2-methyl-3-oxo-propyl]-5-(methoxymethyl)imidazolidine-2,4-dione], the IC50 on human ADAMTS4 is 50 to 100 nM; against human TACE it was > 100 nM; at human ADAMTS6, 0.001 to 25 nM; at human ADAMTS-5, 0.001 to 25 nM; at human MMP14, > 100 nM; on human MMP13 it was > 100 nM.
In the case of `COc1cc(N2CCN(C(=O)CC[C@@]3(C4CC4)NC(=O)NC3=O)C[C@@H]2C)cc(F)c1Cl` [Cpd 65, (5S)-5-[3-[(3S)-4-(4-chloro-3-fluoro-5-methoxy-phenyl)-3-methyl-piperazin-1-yl]-3-oxo-propyl]-5-cyclopropyl-imidazolidine-2,4-dione], the IC50 is 50 to 100 nM against human ADAMTS4; > 100 nM on human TACE; 0.001 to 25 nM on human ADAMTS6; 0.001 to 25 nM on human ADAMTS-5; > 100 nM at human MMP14; > 100 nM on human MMP13.
As to `COc1cc(N2CCN(C(=O)CC[C@H]3NC(=O)NC3=O)C[C@@H]2C)cc(Cl)c1F` [Cpd 148, (5R)-5-[3-[(3 S)-4-(3-chloro-4-fluoro-5-methoxy-phenyl)-3-methyl-piperazin-1-yl]-3-oxo-propyl]imidazolidine-2,4-dione], the IC50 was > 100 nM on human ADAMTS4 (setting [1]); > 100 nM against human TACE; 0.001 to 25 nM at human ADAMTS6; 25 to 50 nM at human ADAMTS-5; > 100 nM on human MMP14; > 100 nM at human MMP13.
As to `COc1cc(N2CCN(C(=O)C(C)CC3(C)NC(=O)NC3=O)C[C@@H]2C)cc(C)c1Cl` (mixture of isomers) [Cpd 125, 5-[3-[(3S)-4-(4-chloro-3-methoxy-5-methyl-phenyl)-3-methyl-piperazin-1-yl]-2-methyl-3-oxo-propyl]-5-methyl-imidazolidine-2,4-dione], the IC50 was 50 to 100 nM on human ADAMTS4; > 100 nM at human TACE; 0.001 to 25 nM on human ADAMTS6; 25 to 50 nM on human ADAMTS-5; > 100 nM on human MMP14; > 100 nM at human MMP13.
Turning to `COc1cc(N2CCN(C(=O)CC[C@@]3(C4CC4)NC(=O)NC3=O)C[C@@H]2C)cc(Cl)c1F` [Cpd 62, (5S)-5-[3-[(3S)-4-(3-chloro-4-fluoro-5-methoxy-phenyl)-3-methyl-piperazin-1-yl]-3-oxo-propyl]-5-cyclopropyl-imidazolidine-2,4-dione], the IC50 against human ADAMTS4 was 50 to 100 nM; against human TACE it was > 100 nM; at human ADAMTS6, 0.001 to 25 nM; on human ADAMTS-5 it was 0.001 to 25 nM; on human MMP14 it was > 100 nM; on human MMP13, > 100 nM.
Take `COc1cc(N2CCN(C(=O)CC[C@@]3(C)NC(=O)NC3=O)C[C@@H]2C)cc(C)c1Cl` [Cpd 105, (5R)-5-[3-[(3S)-4-(4-chloro-3-methoxy-5-methyl-phenyl)-3-methyl-piperazin-1-yl]-3-oxo-propyl]-5-methyl-imidazolidine-2,4-dione]: the IC50 is 50 to 100 nM against human ADAMTS4; > 100 nM at human TACE; 0.001 to 25 nM on human ADAMTS6; > 100 nM on human ADAMTS-5; > 100 nM on human MMP14; > 100 nM at human MMP13.

By IC50 is commonly meant the point on the concentration scale where inhibition reaches its midpoint.

For the origin of these results see patent US10829478B2, “5-[3-[piperazin-1-yl]-3-oxo-propyl]-imidazolidine-2,4-dione derivatives as ADAMTS 4 and 5 inhibitors for treating e.g. osteoarthritis” (Galapagos NV, priority 2016, dated 2020).
